One test concerns CRL-1831 cells. Put plainly: Cytoplasmic cholesterol levels (AmplexRed), CRL-1831. Type of test: cell-based, human. Conditions: 10 μM, 4 h.
Test [1] deals with 5′-biotinylated dsDNA (DNA, duplex) TGTAATCGTAGGTTGGTCCCATCACCCACC/GGTGGGTGATGGGACCAACCTACGATTACA
Put plainly: resonant mirror optical biosensor kinetics (IAsys plus). The following applies: 138 mM NaCl, 2.7 mM KCl; PBS (10 mM Na2HPO4), pH 7.4, 37 °C; monoexponential fit.

As a reminder, the KD is the equilibrium constant for the complex coming apart.

Turning to `CCC(C)(C)C(=O)O[C@H]1C[C@@H](C)C=C2C=C[C@H](C)[C@H](CC[C@@H]3C[C@@H](O)CC(=O)O3)[C@H]21` [Simvastatin, reference compound], in the test on CRL-1831 cells, the “cytoplasmic cholesterol concentration, CRL-1831” value was “significantly decreased”.

Consider `Cc1nn(-c2ccccc2)c([O-])c1C(=O)c1ccc(C(C)(C)C)cc1.Cc1nn(-c2ccccc2)c([O-])c1C(=O)c1ccc(C(C)(C)C)cc1.Cc1nn(-c2ccccc2)c([O-])c1C(=O)c1ccc(C(C)(C)C)cc1.[Ga+3]`, for which, in test [1], the KD was 3.27 ± 0.78 µM.

Consider `Cc1nn(-c2ccccc2)c([O-])c1C(=O)c1ccco1.Cc1nn(-c2ccccc2)c([O-])c1C(=O)c1ccco1.Cc1nn(-c2ccccc2)c([O-])c1C(=O)c1ccco1.[Ga+3]`, for which the KD in test [1] is 3.63 ± 1.88 µM.

Regarding `Cc1nn(-c2ccccc2)c([O-])c1C(=O)c1ccccc1.Cc1nn(-c2ccccc2)c([O-])c1C(=O)c1ccccc1.Cc1nn(-c2ccccc2)c([O-])c1C(=O)c1ccccc1.[Ga+3]`, the KD in test [1] came to 0.76 ± 0.54 µM.

On to `Cc1nn(-c2ccccc2)c([O-])c1C(=O)c1cccs1.Cc1nn(-c2ccccc2)c([O-])c1C(=O)c1cccs1.Cc1nn(-c2ccccc2)c([O-])c1C(=O)c1cccs1.[Ga+3]`, for which the equilibrium dissociation constant (KD) in test [1] stood at 2.24 ± 1.36 µM.

For the molecule `COc1ccc(C(=O)c2c(C)nn(-c3ccccc3)c2[O-])cc1.COc1ccc(C(=O)c2c(C)nn(-c3ccccc3)c2[O-])cc1.COc1ccc(C(=O)c2c(C)nn(-c3ccccc3)c2[O-])cc1.[Ga+3]`, in test [1], the KD is 3.34 ± 1.67 µM.
